Experimental findings from patent publication US11141451B2, “Pharmaceutical composition and health functional food comprising oat extract avenanthramide C or derivative thereof as effective ingredient for prevention or treatment of neurodegenerative disease” (INDUSTRY FOUNDATION OF CHONNAM NATIONAL UNIVERSITY, priority 2016, dated 2021) are described below.

The test system of data set [1] is GSK3β. The data set can be described thus: GSK3β activity by western blotting (GSK3αβ and phosphorylated GSK3β S9) in hippocampal slices treated with amyloid-β. In kind it is cell-based, mouse. As for the experimental part:
(§1) The mice of Example 1 were anesthetized and decapitated to excise brains. The extracted brains were kept in a cooled artificial cerebrospinal fluid (aCSF) (124 mM NaCl, 3 mM KCl, 26 mM NaHCO3, 2 mM CaCl2, 1 mM MgSO4, 10 mM Glucose, 1.25 mM NaH2PO4, and 2 mM CaCl2) saturated with 95% oxygen. Hippocampal slices were sampled from the brains, and the hippocampal slice samples were prepared with a thickness of 400 μm. Then, the hippocampal slice samples were recovered in the aCSF (124 mM NaCl, 3 mM KCl, 26 mM NaHCO3, 2 mM CaCl2, 1 mM MgSO4, 10 mM Glucose, 1.25 mM NaH2PO4, and 2 mM CaCl2) saturated with 95% oxygen at a temperature of 22 to 25° C. for 1 hour, and then used in the experiment.
Thereafter, RIPA [50 mM Tris-HCl (PH 7.5), 150 mM NaCl, 1% Nonidet P-40, 0.5% sodium deoxycholate, 0.1% SDS, 1 mM phenylmethylsulfonyl fluoride (PMSF), 1 mM DTT, and 2 μg of leupeptin and aprotinin, respectively, were dissolved therein. The crushed cells were centrifuged with 12,000 g at 4° C. for 20 minutes, and the resulting soluble fractions were denatured in a Laemmli buffer and subjected to sodium dodecyl sulfate-polyacrylamide gel electrophoresis (SDS-PAGE). After gel electrophoresis, the separated proteins were transferred to a polyvinylidene difluoride (PVDF) membrane using electroblotting. The membrane was blocked with AMRESCO, RAPIDBLOCK solution (pH 7) and subjected to blotting by using enhanced chemiluminescence (ECL). For blotting, an antibody for GSK3αβ and an antibody for phosphorylated GSK3β (S9) were used. The obtained results are illustrated in FIGS. 8 and 9. GSK3β is an enzyme whose activity is inhibited by the phosphorylation of serine residue 9, and is known as a modulator of a wide range of functions such as energy metabolism, cell proliferation, apoptosis and the like.
In order to examine effects of avenanthramide C methyl ester according to the present invention on activity of GSK3β in a hippocampal slice of a mouse, the same western blotting as Experimental Example 2 was performed, and the results thereof are illustrated in FIG. 15.
(Immunoblotting shows a protein as a band on a membrane.)

Data set [2] deals with long-term potentiation (LTP) in hippocampal slice of C57BL/6 mouse. The experiment in a line: LTP induction (fEPSP, Schaffer-Collateral stimulation) in hippocampal slices treated with amyloid-β. The class given is cell-based. As for the experimental part: as §1
(§2) For LTP induction, the hippocampal slice samples were located in a recording chamber, respectively, and then were observed by analyzing a field excitatory postsynaptic potential (fEPSP) by stimulation of Schaffer-Collateral fiber, while applying stimulations to the samples with 100 Hz every 200 ms, and the experiment was performed for 90 minutes. During the experiment, the aCSF was supplied by flowing with a rate of 2 to 3 ml/min at 30° C., and the obtained experimental results were compared using the ANOVA test known in the art. The obtained results are illustrated in FIGS. 1 to 7.
In order to examine effects of avenanthramide C methyl ester according to the present invention on the LTD in a hippocampal slice of a mouse, an LTP comparison experiment was performed in the same method as Experimental Example 1, and the results thereof are illustrated in FIGS. 14A to 14C.
An LTP comparison experiment was performed by treating the samples with amyloid-β and β-glucan in amounts as illustrated in Table 2 below two hours before the experiment by using the same method as in Experimental Example 1, except that β-glucan was used instead of avenanthramide C according to the present invention. The obtained results are illustrated in FIGS. 18 to 21.

In data set [3] the test system is GSK3β. The data set can be described thus: GSK3β activity by western blotting in hippocampal slice of Tg2576 induced AD mouse. The class given is cell-based. The following applies: 7-month-old Tg2576 mouse hippocampal slice, 50 μM compound, versus untreated. As for the experimental part: as §1
(§3) Thereafter, RIPA [50 mM Tris-HCl (PH 7.5), 150 mM NaCl, 1% Nonidet P-40, 0.5% sodium deoxycholate, 0.1% SDS, 1 mM phenylmethylsulfonyl fluoride (PMSF), 1 mM DTT, and 2 μg of leupeptin and aprotinin, respectively, were dissolved therein. The crushed cells were centrifuged with 12,000 g at 4° C. for 20 minutes, and the resulting soluble fractions were denatured in a Laemmli buffer and subjected to sodium dodecyl sulfate-polyacrylamide gel electrophoresis (SDS-PAGE). After gel electrophoresis, the separated proteins were transferred to a polyvinylidene difluoride (PVDF) membrane using electroblotting. […]

Data set [4] concerns long-term potentiation (LTP) in hippocampal slice of 5×FAD induced AD mouse. The experiment in a line: LTP induction in hippocampal slice of 5×FAD induced AD mouse. The class given is cell-based. The method, then:
as §1
For LTP induction, the hippocampal slice samples were located in a recording chamber, respectively, and then were observed by analyzing a field excitatory postsynaptic potential (fEPSP) by stimulation of Schaffer-Collateral fiber, while applying stimulations to the samples with 100 Hz every 200 ms, and the experiment was performed for 90 minutes. During the experiment, the aCSF was supplied by flowing with a rate of 2 to 3 ml/min at 30° C., and the obtained experimental results were compared using the ANOVA test known in the art. The obtained results are illustrated in FIGS. 1 to 7. […]

In data set [5] the test system is long-term potentiation (LTP) in hippocampal slice of Tg2576 induced AD mouse. The experiment in a line: LTP induction in hippocampal slice of Tg2576 induced AD mouse. In kind it is cell-based. The following applies: 7-month-old Tg2576 mouse hippocampal slice, 50 μM compound. The method, then:
as §1, §2
In order to examine effects of avenanthramide C according to the present invention on the LTD in a hippocampal slice of a 7-month-old Tg2576 induced AD mouse, an LTP comparison experiment was performed using a hippocampal slice of a gene manipulated mouse in the same method as Experimental Example 1, and the results thereof are illustrated in FIGS. 12A and 12B.
In order to examine effects of avenanthramide B methyl ester according to the present invention on the LTD in a hippocampal slice of a 7-month-old Tg2576 induced AD mouse, an LTP comparison experiment was performed in the same method as Experimental Example 1 using a hippocampal slice of a gene manipulated mouse, and the results thereof are illustrated in FIGS. 16A and 16B. […]

Data set [6] deals with GSK3β. The experiment in a line: GSK3β activity by western blotting in hippocampal slice of 5×FAD induced AD mouse. In kind it is cell-based. The note with it: 4-month-old 5×FAD mouse hippocampal slice, 50 μM compound, versus untreated. The method, then:
as §1, §3

Setting [7] is: hippocampal slice treated with 500 nM amyloid-β and 50 μM compound together.
The mark [8] stands for this setting: hippocampal slice treated with 500 nM amyloid-β and 500 μM compound together.

As for `O=C(/C=C/c1ccc(O)c(O)c1)Nc1ccc(O)cc1C(=O)O` [avenanthramide C], the “toxicity in hippocampal slice (GSK3β experiment)” value in the data set on GSK3β [1] (500 nM amyloid-β and 500 μM compound together) is “without toxicity”. In addition, the “activity of GSK3β” value in the data set with GSK3β [1] (setting [7]) is “inhibiting the activity of GSK3β”; in the data set with GSK3β [1] (setting [8]), “inhibited”; in the data set on GSK3β [3], “more inhibited”; in the data set on GSK3β [6], “more inhibited”. For the same compound, the LTP induction result is “not induced” in data set [2] (hippocampal slice treated with 500 nM amyloid-β and 10 μM compound together); “induced” in data set [2] (setting [7]); “induced” in data set [2] (setting [8]); “induced” in data set [2] (hippocampal slice treated with only 50 μM compound, no amyloid-β); “induced” in data set [2] (hippocampal slice treated with only 500 μM compound, no amyloid-β); “induced” in data set [4] (4-month-old 5×FAD mouse hippocampal slice, 50 μM compound). For the same compound, the LTP induction entry in data set [5] is “induced”. For the same compound, in data set [2] (only 500 μM compound, no amyloid-β), the “toxicity in hippocampal slice (LTP experiment)” value is on record as “not exhibiting toxicity”.
Turning to β-glucan [reference compound], the LTP induction entry is “not induced” in data set [2] (hippocampal slice treated with 500 nM amyloid-β and 80 μg/ml β-glucan together); “induced” in data set [2] (hippocampal slice treated with only 80 μg/ml β-glucan, no amyloid-β); “not induced” in data set [4] (induced AD mouse hippocampal slice, 80 μg/ml β-glucan).
Take `COC(=O)c1cc(O)ccc1NC(=O)/C=C/c1ccc(O)c(O)c1` [avenanthramide C methyl ester]: in the data set with GSK3β [1] (setting [7]), the “activity of GSK3β” value is “inhibited”. Moreover, in data set [2] (setting [7]), the LTP induction entry is reported as “induced”.
Turning to `O=C(/C=C/c1ccc(O)cc1)Nc1ccc(O)cc1C(=O)O` [avenanthramide A], the LTP induction entry in data set [5] is given as “induced”.
The same measure, in the same setting: to `COc1cc(/C=C/C(=O)Nc2ccc(O)cc2C(=O)O)ccc1O` [avenanthramide B] belongs “slightly induced”.
